The text below walks through data of US9650395B2, “Antibacterial compounds and methods for use” (PTC Therapeutics, Inc., priority 2011, dated 2017).

≈ marks a conversion by molar mass, not a printed value. Like-named read-outs stand apart in the source and are kept apart here.

Assay [1] has as its system super sensitive Gram-negative Escherichia coli (E. coli) BAS849. Nature of the assay: Antibacterial activity, microbroth dilution MIC, E. coli BAS849. The note with it: Escherichia coli; E. coli BAS849, microbroth dilution; read-out: MIC, BAS849. Format: cell-based. A general note: Broth dilution looks for growth in wells or tubes with falling amounts of substance.
Assay [2] concerns control Gram-negative E. coli 25922 strain. The assay can be described thus: Antibacterial activity, microbroth dilution MIC, E. coli 25922. It is filed as cell-based, Escherichia coli. The note with it: Escherichia coli; E. coli 25922, microbroth dilution; read-out: MIC, 25922.
Assay [3] concerns Gram-positive Staphylococcus aureus (S. aureus) 29213. The assay can be described thus: Antibacterial activity, microbroth dilution MIC, S. aureus 29213. It is filed as cell-based. The conditions noted are these: Staphylococcus aureus; S. aureus 29213, microbroth dilution; read-out: MIC, 29213.
The test system of assay [4] is quinolone resistant E. coli LZ3111. Nature of the assay: Antibacterial activity, MIC, quinolone resistant E. coli LZ3111. It is filed as cell-based, Escherichia coli. The note with it: Escherichia coli, read-out: MIC, LZ3111. An excerpt:
(§1) The antibacterial activity from a microbroth dilution method may be presented as the minimum inhibitory concentration (MIC in […]). The MIC value is the lowest concentration of a drug which prevents macroscopically visible bacterial growth under test conditions.
Mutations in these regions are known to confer a high level resistance to the quinolone class of antibiotics.

Assay [5] concerns Acinetobacter baumannii (A. baumannii) BAA747. The assay can be described thus: Antibacterial activity, MIC, A. baumannii BAA747. It is filed as cell-based. The note with it: Acinetobacter baumannii; A. baumannii BAA747; read-out: MIC BAA747.
Assay [6] concerns Klebsiella pneumoniae (K. pneumoniae) 35657. Nature of the assay: Antibacterial activity, MIC, K. pneumoniae 35657. Format: cell-based. The note with it: Klebsiella pneumoniae.
Assay [7] relates to resistant A. baumannii MXX2240 (MDR clinical isolate). Nature of the assay: Antibacterial activity, MIC, resistant A. baumannii MXX2240. It is filed as cell-based, Acinetobacter baumannii. The conditions noted are these: Acinetobacter baumannii, read-out: MIC MMX2240.
The subject of assay [8] is resistant K. pneumoniae MXX1232 (MDR clinical isolate). Nature of the assay: Antibacterial activity, MIC, resistant K. pneumoniae MXX1232. The note with it: Klebsiella pneumoniae, read-out: MIC MMX1232. It is filed as cell-based, Klebsiella pneumoniae.
The subject of assay [9] is Pseudomonas aeruginosa (P. aeruginosa) 27853. Nature of the assay: Antibacterial activity, MIC, P. aeruginosa 27853. It is filed as cell-based. The note with it: Pseudomonas aeruginosa, P. aeruginosa 27853; read-out: MIC 27853.
Text: as §1
Antibacterial activity of test compounds against the Gram-negative bacterium Pseudomonas aeruginosa (P. aeruginosa) 27853 is shown in Table 5.

[10] abbreviates: resistant A. baumannii MMX2240, MDR clinical isolate.
The mark [11] stands for this setting: resistant K. pneumoniae MMX1232, MDR clinical isolate.

Turning to `CCc1c(-c2ccc(C3CCN(C)CC3)cc2)[nH]c(=O)c(C(=O)O)c1O` [Cpd 338, 5-ethyl-4-hydroxy-6-(4-(1-methylpiperidin-4-yl)phenyl)-2-oxo-1,2-dihydropyridine-3-carboxylic acid], the MIC in assay [1], in assay [2], in assay [3], in assay [4], in [5] and in assay [6] was 12.5 to 150 µg/mL (≈ 35.1 to 421 µM) in each case. Further, the MIC in assay [7] (setting [10]), in assay [8] (setting [11]) and in assay [9] was 12.5 to 150 µg/mL (≈ 35.1 to 421 µM) in each case.

`CCc1c(-c2ccc(C3CCN(CC)CC3)cc2)[nH]c(=O)c(C(=O)O)c1O` [Cpd 339, 5-ethyl-6-(4-(1-ethylpiperidin-4-yl)phenyl)-4-hydroxy-2-oxo-1,2-dihydropyridine-3-carboxylic acid]: the MIC (usually the lowest concentration that inhibits growth of the organism) in [1] is 3.5 to 12.5 µg/mL (≈ 9.45 to 33.7 µM); in assay [2], 12.5 to 150 µg/mL (≈ 33.7 to 405 µM); in assay [3], 12.5 to 150 µg/mL (≈ 33.7 to 405 µM); in assay [4], 12.5 to 150 µg/mL (≈ 33.7 to 405 µM); in assay [5] it was 12.5 to 150 µg/mL (≈ 33.7 to 405 µM); in [6] it was 12.5 to 150 µg/mL (≈ 33.7 to 405 µM). For the same molecule, the minimal inhibitory concentration (MIC) in [7] (setting [10]), in [8] (setting [11]) and in assay [9] was 12.5 to 150 µg/mL (≈ 33.7 to 405 µM) in each case.

As to `CCc1c(-c2ccc(C3=CCNCC3)cc2)[nH]c(=O)c(C(=O)O)c1O` [Cpd 340, 5-ethyl-4-hydroxy-2-oxo-6-(4-(1,2,3,6-tetrahydropyridin-4-yl)phenyl)-1,2-dihydropyridine-3-carboxylic acid], the MIC fell in the range of 3.5 to 12.5 µg/mL (≈ 10.3 to 36.7 µM) in assay [1]; 12.5 to 150 µg/mL (≈ 36.7 to 441 µM) in assay [2]; 12.5 to 150 µg/mL (≈ 36.7 to 441 µM) in assay [3]; 12.5 to 150 µg/mL (≈ 36.7 to 441 µM) in [4]; 12.5 to 150 µg/mL (≈ 36.7 to 441 µM) in assay [5]; 3.5 to 12.5 µg/mL (≈ 10.3 to 36.7 µM) in assay [6]. In addition, the MIC in assay [7], in assay [8] and in assay [9] was 12.5 to 150 µg/mL (≈ 36.7 to 441 µM) each time.

`CCc1c(-c2ccc(C3=CCN(CC)CC3)cc2)[nH]c(=O)c(C(=O)O)c1O` [Cpd 341, 5-ethyl-6-(4-(1-ethyl-1,2,3,6-tetrahydropyridin-4-yl)phenyl)-4-hydroxy-2-oxo-1,2-dihydropyridine-3-carboxylic acid]: the minimal inhibitory concentration (MIC) in [1] was in the range of 1 to 3.5 µg/mL (≈ 2.71 to 9.5 µM); in [2], 12.5 to 150 µg/mL (≈ 33.9 to 407 µM); in assay [3], 12.5 to 150 µg/mL (≈ 33.9 to 407 µM); in assay [4], 3.5 to 12.5 µg/mL (≈ 9.5 to 33.9 µM); in assay [5] it was 12.5 to 150 µg/mL (≈ 33.9 to 407 µM); in [6], 3.5 to 12.5 µg/mL (≈ 9.5 to 33.9 µM). Also, the MIC in [7], in [8] and in assay [9] was 12.5 to 150 µg/mL (≈ 33.9 to 407 µM) throughout.

On to `CCc1c(-c2ccc(C3=CCN(C)CC3)cc2)[nH]c(=O)c(C(=O)O)c1O` [Cpd 342, 5-ethyl-4-hydroxy-6-(4-(1-methyl-1,2,3,6-tetrahydropyridin-4-yl)phenyl)-2-oxo-1,2-dihydropyridine-3-carboxylic acid], for which the minimum inhibitory concentration (MIC) in assay [1] was in the range of 1 to 3.5 µg/mL (≈ 2.82 to 9.88 µM); in assay [2] it was 3.5 to 12.5 µg/mL (≈ 9.88 to 35.3 µM); in assay [3], 12.5 to 150 µg/mL (≈ 35.3 to 423 µM); in assay [4], 3.5 to 12.5 µg/mL (≈ 9.88 to 35.3 µM); in assay [5], 12.5 to 150 µg/mL (≈ 35.3 to 423 µM); in assay [6] it was 3.5 to 12.5 µg/mL (≈ 9.88 to 35.3 µM). Further, the minimum inhibitory concentration (MIC) in assay [7], in assay [8] and in assay [9] was 12.5 to 150 µg/mL (≈ 35.3 to 423 µM) each time.

On to `CCc1c(-c2ccc(CCN(C)C)cc2)[nH]c(=O)c(C(=O)O)c1O` [Cpd 343, 6-(4-(2-(dimethylamino)ethyl)phenyl)-5-ethyl-4-hydroxy-2-oxo-1,2-dihydropyridine-3-carboxylic acid], for which the MIC was 3.5 to 12.5 µg/mL (≈ 10.6 to 37.8 µM) in assay [1]; 12.5 to 150 µg/mL (≈ 37.8 to 454 µM) in [2]; 12.5 to 150 µg/mL (≈ 37.8 to 454 µM) in assay [3]; 12.5 to 150 µg/mL (≈ 37.8 to 454 µM) in assay [4]; 12.5 to 150 µg/mL (≈ 37.8 to 454 µM) in assay [5]; 12.5 to 150 µg/mL (≈ 37.8 to 454 µM) in assay [6]. In addition, the minimum inhibitory concentration (MIC) in assay [7] (setting [10]), in assay [8] (setting [11]) and in assay [9] was 12.5 to 150 µg/mL (≈ 37.8 to 454 µM) each time.
